Results from patent US20060069132A1, “Azolecarboxamide herbicides” (priority 2004, published 2006).

Experiments:
rice [1] = test: Test B pre-/postemergence herbicide test; type: in vivo, Oryza sativa; conditions: 0 = no effect, 100 = complete control, preemergence; for Rice plant response rating (0 to 100 scale): 125 g ai/ha; for Plant response rating, Rice: 500 g ai/ha, visual rating
In short: (§1)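 Seeds were planted and treated preemergence with compounds formulated in a non-phytotoxic solvent mixture containing surfactant, while plants at the 1- to 4-leaf stage (2 to 18 cm) received postemergence sprays. Flooded paddy plants were grown to the 2-leaf stage. After 13 to 15 days in a greenhouse, injury was visually rated 0–100 against untreated controls.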

corn = test: Test B pre-/postemergence herbicide test; type: in vivo, Zea mays; conditions: for Corn plant response rating (0 to 100 scale) / Plant response rating, Corn: 0 = no effect, 100 = complete control, preemergence; for Corn plant response rating: postemergence
In short: as §1

lambsquarters = test: Test B pre-/postemergence herbicide test; type: in vivo, Chenopodium album; conditions: for Lambsquarters plant response rating (0 to 100 scale) / Plant response rating, Lambsquarters: 0 = no effect, 100 = complete control, preemergence; for Lambsquarters plant response rating: postemergence
In short: as §1

velvetleaf = test: Test B pre-/postemergence herbicide test; type: in vivo, Abutilon theophrasti; conditions: for Velvetleaf plant response rating (0 to 100 scale) / Plant response rating, Velvetleaf: 0 = no effect, 100 = complete control, preemergence; for Velvetleaf plant response rating: postemergence
In short: as §1

Surinam grass = test: Test B pre-/postemergence herbicide test; type: in vivo, Urochloa decumbens; conditions: for Surinam Grass plant response rating (0 to 100 scale) / Plant response rating, Surinam Grass: 0 = no effect, 100 = complete control, preemergence; for Surinam Grass plant response rating: postemergence
In short: as §1

ducksalad = test: Test B flooded paddy test; type: in vivo, Heteranthera limosa; conditions: 1000 g ai/ha, scale 0 to 100 (0 no effect, 100 complete control)
In short: (§2)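 Formulated test chemicals went onto postemergence plants measuring 2 to 18 cm, at one to four leaves. For the paddy assay, species had reached two leaves. Scoring took place 13–15 days later by eye, relative to untreated plants, using 0 for no effect up to 100 for full control.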

barnyardgrass [2] = test: Test B flooded paddy test; type: in vivo, Echinochloa crus-galli; conditions: 1000 g ai/ha, scale 0 to 100 (0 no effect, 100 complete control)
In short: as §2

morningglory = test: Test B pre-/postemergence herbicide test; type: in vivo, Ipomoea coccinea; conditions: for Morningglory plant response rating (0 to 100 scale) / Plant response rating, Morningglory: 0 = no effect, 100 = complete control, preemergence; for Morningglory plant response rating: postemergence
In short: (§3)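 Plants compared with untreated controls 13–15 days post-treatment and given a visual 0–100 injury score. Applications: preemergence to seeds; postemergence at 1- to 4-leaf (2–18 cm); paddy species flooded, 2-leaf stage. Vehicle non-phytotoxic, surfactant included.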

wild oat = test: Test B postemergence herbicide test; type: in vivo, Avena fatua; conditions: postemergence
In short: (§4)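 After treating 2-leaf paddy plants or 2–18 cm postemergence plants (1 to 4 leaves) with formulated chemical, researchers kept them in a greenhouse for 13–15 days. Effects were judged visually versus controls: 0 indicates none, 100 total control.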

wheat = test: Test B postemergence herbicide test; type: in vivo, Triticum aestivum; design: key to Wheat plant response rating: 0 = no effect, 100 = complete control; conditions: postemergence
In short: as §4

cocklebur = test: Test B pre-/postemergence herbicide test; type: in vivo, Xanthium strumarium; conditions: for Cocklebur plant response rating (0 to 100 scale) / Plant response rating, Cocklebur: 0 = no effect, 100 = complete control, preemergence; for Plant response rating, Cocklebur / Cocklebur plant response rating: visual rating; for Cocklebur plant response rating: postemergence, scale 0 (no effect) to 100 (complete control)
In short: as §3

giant foxtail = test: Test B pre-/postemergence herbicide test; type: in vivo, Setaria faberi; conditions: for Foxtail, Giant plant response rating (0 to 100 scale) / Plant response rating, Foxtail, Giant: 0 = no effect, 100 = complete control, preemergence; for Foxtail, Giant plant response rating: postemergence
In short: as §1

[3] = test system: small flower umbrella sedge; test: Test B flooded paddy test; type: in vivo, Cyperus difformis; conditions: 1000 g ai/ha, scale 0 to 100 (0 no effect, 100 complete control)
In short: as §2

pigweed = test: Test B pre-/postemergence herbicide test; type: in vivo, Amaranthus retroflexus; conditions: for Pigweed plant response rating (0 to 100 scale) / Plant response rating, Pigweed: 0 = no effect, 100 = complete control, preemergence; for Pigweed plant response rating: postemergence
In short: as §1

large crabgrass = test: Test B pre-/postemergence herbicide test; type: in vivo, Digitaria sanguinalis; conditions: for Crabgrass, Large plant response rating (0 to 100 scale) / Plant response rating, Crabgrass, Large: 0 = no effect, 100 = complete control, preemergence; for Crabgrass, Large plant response rating: postemergence
In short: as §1

blackgrass = test: Test B postemergence herbicide test; type: in vivo, Alopecurus myosuroides; conditions: postemergence, visual rating, scale 0 (no effect) to 100 (complete control)
In short: as §2

barnyardgrass [4] = test: Test B pre-/postemergence herbicide test; type: in vivo, Echinochloa crus-galli; conditions: for Barnyardgrass plant response rating (0 to 100 scale) / Plant response rating, Barnyardgrass: 0 = no effect, 100 = complete control, preemergence; for Plant response rating, Barnyardgrass / Barnyardgrass plant response rating: visual rating; for Barnyardgrass plant response rating: postemergence, scale 0 (no effect) to 100 (complete control)
In short: as §3

rice [5] = test: Test B flooded paddy test; type: in vivo, Oryza sativa; conditions: 1000 g ai/ha, scale 0 to 100 (0 no effect, 100 complete control)
In short: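 Visual ratings, 0 (no effect) to 100 (complete control), made versus controls after 13–15 d greenhouse. Paddy plants treated at 2-leaf stage; postemergence plants at 1- to 4-leaf stage, 2–18 cm tall.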

[6] = 125 g ai/ha, visual rating, scale 0 (no effect) to 100 (complete control)
[7] = 500 g ai/ha, visual rating, scale 0 (no effect) to 100 (complete control)
[8] = 500 g ai/ha, scale 0 to 100, 0 is no effect, 100 is complete control

CCOC(=O)c1ccnc(NC(=O)c2cn(C(C)(C)C)nc2CC)c1 [Compound 238]
30: Rice plant response rating (rice [5])
0: Rice plant response rating (0 to 100 scale) (rice [1]) | Plant response rating, Rice (rice [1]) | Corn plant response rating (0 to 100 scale) (corn; 125 g ai/ha) | Plant response rating, Corn (corn; 500 g ai/ha, visual rating) | Corn plant response rating (corn; [6]) | Corn plant response rating (corn; [7]) | Lambsquarters plant response rating (0 to 100 scale) (lambsquarters; 125 g ai/ha) | Plant response rating, Lambsquarters (lambsquarters; 500 g ai/ha, visual rating) | Lambsquarters plant response rating (lambsquarters; [6]) | Lambsquarters plant response rating (lambsquarters; [7]) | Velvetleaf plant response rating (0 to 100 scale) (velvetleaf; 125 g ai/ha) | Plant response rating, Velvetleaf (velvetleaf; 500 g ai/ha, visual rating) | Velvetleaf plant response rating (velvetleaf; [6]) | Surinam Grass plant response rating (0 to 100 scale) (Surinam grass; 125 g ai/ha) | Plant response rating, Surinam Grass (Surinam grass; 500 g ai/ha, visual rating) | Surinam Grass plant response rating (Surinam grass; [6]) | Surinam Grass plant response rating (Surinam grass; [7]) | Ducksalad plant response rating (ducksalad) | Morningglory plant response rating (0 to 100 scale) (morningglory; 125 g ai/ha) | Plant response rating, Morningglory (morningglory; 500 g ai/ha, visual rating) | Morningglory plant response rating (morningglory; [6]) | Morningglory plant response rating (morningglory; [7]) | Oat, Wild plant response rating (wild oat; [6]) | Wheat plant response rating (wheat; [6]) | Cocklebur plant response rating (0 to 100 scale) (cocklebur; 125 g ai/ha) | Plant response rating, Cocklebur (cocklebur; 500 g ai/ha) | Cocklebur plant response rating (cocklebur; 125 g ai/ha) | Foxtail, Giant plant response rating (0 to 100 scale) (giant foxtail; 125 g ai/ha) | Plant response rating, Foxtail, Giant (giant foxtail; 500 g ai/ha, visual rating) | Foxtail, Giant plant response rating (giant foxtail; [6]) | Foxtail, Giant plant response rating (giant foxtail; [7]) | Pigweed plant response rating (0 to 100 scale) (pigweed; 125 g ai/ha) | Plant response rating, Pigweed (pigweed; 500 g ai/ha, visual rating) | Pigweed plant response rating (pigweed; [6]) | Pigweed plant response rating (pigweed; [7]) | Crabgrass, Large plant response rating (0 to 100 scale) (large crabgrass; 125 g ai/ha) | Plant response rating, Crabgrass, Large (large crabgrass; 500 g ai/ha, visual rating) | Crabgrass, Large plant response rating (large crabgrass; [6]) | Crabgrass, Large plant response rating (large crabgrass; [7]) | Blackgrass plant response rating (blackgrass; 125 g ai/ha) | Barnyardgrass plant response rating (0 to 100 scale) (barnyardgrass [4]; 125 g ai/ha) | Plant response rating, Barnyardgrass (barnyardgrass [4]; 500 g ai/ha) | Barnyardgrass plant response rating (barnyardgrass [4]; 125 g ai/ha) | Barnyardgrass plant response rating (barnyardgrass [4]; 500 g ai/ha)
80: Sedge, Umbrella plant response rating [3]
20: Wheat plant response rating (wheat; [7]) | Cocklebur plant response rating (cocklebur; 500 g ai/ha)
10: Velvetleaf plant response rating (velvetleaf; [7]) | Barnyardgrass plant response rating (barnyardgrass [2]) | Oat, Wild plant response rating (wild oat; [7]) | Blackgrass plant response rating (blackgrass; 500 g ai/ha)

CCn1nc(C(C)(C)C)cc1C(=O)Nc1cccc(C(=O)N(C)OC)n1 [Compound 246]
70: Plant response rating, Rice (rice [1]) | Lambsquarters plant response rating (0 to 100 scale) (lambsquarters; 125 g ai/ha) | Lambsquarters plant response rating (lambsquarters; [8]) | Crabgrass, Large plant response rating (0 to 100 scale) (large crabgrass; 125 g ai/ha) | Barnyardgrass plant response rating (barnyardgrass [4]; 500 g ai/ha)
30: Velvetleaf plant response rating (velvetleaf; [6]) | Surinam Grass plant response rating (0 to 100 scale) (Surinam grass; 125 g ai/ha) | Wheat plant response rating (wheat; [8]) | Cocklebur plant response rating (cocklebur; 500 g ai/ha) | Foxtail, Giant plant response rating (0 to 100 scale) (giant foxtail; 125 g ai/ha) | Foxtail, Giant plant response rating (giant foxtail; [6]) | Foxtail, Giant plant response rating (giant foxtail; [8]) | Barnyardgrass plant response rating (barnyardgrass [4]; 125 g ai/ha)
40: Rice plant response rating (0 to 100 scale) (rice [1])
50: Lambsquarters plant response rating (lambsquarters; [6]) | Ducksalad plant response rating (ducksalad) | Barnyardgrass plant response rating (barnyardgrass [2]) | Sedge, Umbrella plant response rating [3] | Pigweed plant response rating (pigweed; [6])
10: Corn plant response rating (corn; [8]) | Plant response rating, Morningglory (morningglory; 500 g ai/ha, visual rating) | Morningglory plant response rating (morningglory; [8]) | Oat, Wild plant response rating (wild oat; [6]) | Crabgrass, Large plant response rating (large crabgrass; [6])
20: Plant response rating, Corn (corn; 500 g ai/ha, visual rating) | Surinam Grass plant response rating (Surinam grass; [6]) | Surinam Grass plant response rating (Surinam grass; [8]) | Oat, Wild plant response rating (wild oat; [8]) | Cocklebur plant response rating (cocklebur; 125 g ai/ha) | Crabgrass, Large plant response rating (large crabgrass; [8])
80: Plant response rating, Surinam Grass (Surinam grass; 500 g ai/ha, visual rating)
90: Plant response rating, Velvetleaf (velvetleaf; 500 g ai/ha, visual rating) | Plant response rating, Foxtail, Giant (giant foxtail; 500 g ai/ha, visual rating) | Plant response rating, Barnyardgrass (barnyardgrass [4]; 500 g ai/ha)
60: Velvetleaf plant response rating (0 to 100 scale) (velvetleaf; 125 g ai/ha) | Velvetleaf plant response rating (velvetleaf; [8]) | Pigweed plant response rating (pigweed; [8]) | Barnyardgrass plant response rating (0 to 100 scale) (barnyardgrass [4]; 125 g ai/ha) | Rice plant response rating (rice [5])
0: Corn plant response rating (0 to 100 scale) (corn; 125 g ai/ha) | Corn plant response rating (corn; [6]) | Morningglory plant response rating (0 to 100 scale) (morningglory; 125 g ai/ha) | Morningglory plant response rating (morningglory; [6]) | Wheat plant response rating (wheat; [6]) | Cocklebur plant response rating (0 to 100 scale) (cocklebur; 125 g ai/ha) | Plant response rating, Cocklebur (cocklebur; 500 g ai/ha) | Blackgrass plant response rating (blackgrass; 125 g ai/ha) | Blackgrass plant response rating (blackgrass; 500 g ai/ha)
100: Plant response rating, Lambsquarters (lambsquarters; 500 g ai/ha, visual rating) | Pigweed plant response rating (0 to 100 scale) (pigweed; 125 g ai/ha) | Plant response rating, Pigweed (pigweed; 500 g ai/ha, visual rating) | Plant response rating, Crabgrass, Large (large crabgrass; 500 g ai/ha, visual rating)
